Assay results published in US9308295B2, “Oxygenated demineralized bone matrix for bone growth” (THERACELL, INC., priority 2013, dated 2016).

Columns and labels:
[1] = tested on: new bone formation in subcutaneous pouch; experiment: Subcutaneous implantation of DBM/PFC slurry in a rat pouch, histology at 28 days; type: in vivo; conditions: subcutaneous pocket, PFC with DBM
Experimental: (§1) The induction of bone growth using DBM and an oxygen carrier was previously disclosed in U.S. Publication Application No. 2012/0082704, the entire contents of which are herein incorporated by reference. In order to investigate the properties of a perfluorocarbon (PFC) oxygen carrier and to investigate the effects of DBM and a PFC in two environments having different vascularization, four different PFCs were assayed in combination with DBM. Specifically perfluorohexane, (PFC1), perfluorodecalin (PFC2), perfluorotributylamine (PFC3), and perfluoroperhydrophenanthrene (PFC4) were mixed with DBM (powder or chips) to form a DBM/PFC mixture. In some embodiments, the amount of PFC in the PFC/DBM mixture is in the range of about 32-48 weight %. Sterile saline was then added to provide a slurry with the handling characteristics of wet sand. […] This DBM/PFC slurry mixture was then applied to a subcutaneous pouch and an intramuscular pouch in the rat biceps femoris.
(§2) 0.4 ml of the perfluorocarbon was filtered through a 0.2 micron filter and added to 0.8 g of DBM (powder or chips) at the time of surgery prior to implantation in either a subcutaneous or an intramuscular pouch in the rat biceps femoris. Using a sterile spatula the mixture was gently mixed to ensure complete wetting out of the DBM powder. This was assessed visually. 1.4 ml of sterile saline was then added to the mixture and the resultant slurry was loaded into a 1 ml syringe with its end removed, resulting in a composition including PFC at about 32 to about 48% by weight. The mixture was lightly tamped and using the plunger on the syringe a 0.2 ml implant volume was defined. This was then introduced into the rat pouch. The PFCs included several perfluoroperhydrophenanthrene and perfluorodecalin that have achieved FDA clearance for use in various procedures in humans. In prior studies bone forms readily in DBM implanted in the SD […] model, and thus a human DBM was selected specifically to be from low activity level batches (1965 picograms/gram BMP2; Spec>2300) (Allosource®, Centennial, Colo.). A formulation consisting of DBM+PFC+Saline was prepared at the time of surgery. […] Perfluorohexane, (PFC1), perfluorodecalin (PFC2), and perfluoroperhydrophenanthrene (PFC4) were obtained from a GMP manufacturer and have varying levels of US Device/Drug usage. Accordingly, perfluorohexane, (PFC1), perfluorodecalin (PFC2), and perfluoroperhydrophenanthrene (PFC4) represent material and supplier suitable for use in a commercial product.
(§3) 30 SD Rats (Rattusnorvegicus, CR; NIH-RNU) received bilateral placement of test article (i.e., the DBM and PFC slurry) intramuscularly within the biceps femoris muscle or subcutaneously. Each animal acted as its own control with a saline/DBM implant in the contralateral limb. […]

[2] = in vivo; cited from earlier work
[3] = tested on: new bone formation in intramuscular pouch in the rat biceps femoris; experiment: Intramuscular implantation of DBM/PFC slurry in rat biceps femoris, histology at 28 days; type: in vivo; conditions: DBM/PFC slurry mixture in saline, intramuscular pocket in biceps femoris, control DBM alone in contralateral limb
Experimental: as §1, §2, §3

## FC1(F)C(F)(F)C(F)(F)C2(F)C(F)(F)C(F)(F)C(F)(F)C(F)(F)C2(F)C1(F)F (stereo not drawn) [PFC2, Perfluorodecalin]
[1]
  performance of the PFCs relative to each other in new bone formation: performed better than PFC1, PFC3, and PFC4
[2]
  retention in the liver: not retained in the liver
[3]
  histologic grade of new bone formation as compared to DBM alone: increased histologic grade of new bone formation

## FC1(F)C(F)(F)C(F)(F)C2(F)C(F)(C1(F)F)C(F)(F)C(F)(F)C1(F)C(F)(F)C(F)(F)C(F)(F)C(F)(F)C12F (stereo not drawn) [PFC4, Perfluoroperhydrophenanthrene]
[1]
  performance of the PFCs relative to each other in new bone formation: performed equally
[3]
  histologic grade of new bone formation as compared to DBM alone: increased histologic grade of new bone formation

## FC(F)(F)C(F)(F)C(F)(F)C(F)(F)C(F)(F)C(F)(F)F [PFC1, Perfluorohexane]
[1]
  performance of the PFCs relative to each other in new bone formation: performed equally
[3]
  histologic grade of new bone formation as compared to DBM alone: increased histologic grade of new bone formation

## FC(F)(F)C(F)(F)C(F)(F)C(F)(F)N(C(F)(F)C(F)(F)C(F)(F)C(F)(F)F)C(F)(F)C(F)(F)C(F)(F)C(F)(F)F [PFC3, Perfluorotributylamine]
[1]
  performance of the PFCs relative to each other in new bone formation: performed equally
[3]
  histologic grade of new bone formation as compared to DBM alone: increased histologic grade of new bone formation
